Columns and labels:
[1] = target: T1, 5-hydroxytryptamine receptor 1A (Homo sapiens) (UniProt P08908); conditions: Compound concentration 10.0 uM
T1 sequence (whole entry): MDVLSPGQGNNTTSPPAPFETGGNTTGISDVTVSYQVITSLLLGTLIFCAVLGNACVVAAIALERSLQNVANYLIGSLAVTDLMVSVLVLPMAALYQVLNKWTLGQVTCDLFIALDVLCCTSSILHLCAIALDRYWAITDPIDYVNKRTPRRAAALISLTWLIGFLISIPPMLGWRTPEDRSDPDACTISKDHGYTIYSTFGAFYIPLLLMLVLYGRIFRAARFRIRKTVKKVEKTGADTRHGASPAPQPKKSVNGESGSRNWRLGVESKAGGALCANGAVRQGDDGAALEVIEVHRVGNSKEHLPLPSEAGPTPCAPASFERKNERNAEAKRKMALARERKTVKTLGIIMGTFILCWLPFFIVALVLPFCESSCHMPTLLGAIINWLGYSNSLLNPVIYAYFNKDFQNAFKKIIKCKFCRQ

[2] = target: Nociceptin receptor (Homo sapiens) (UniProt P41146); assay: Orphanin ORL1 Eurofins-Panlabs radioligand binding assay; conditions: Compound concentration 10.0 uM
Sequence of Nociceptin receptor (Homo sapiens) (P41146 whole entry): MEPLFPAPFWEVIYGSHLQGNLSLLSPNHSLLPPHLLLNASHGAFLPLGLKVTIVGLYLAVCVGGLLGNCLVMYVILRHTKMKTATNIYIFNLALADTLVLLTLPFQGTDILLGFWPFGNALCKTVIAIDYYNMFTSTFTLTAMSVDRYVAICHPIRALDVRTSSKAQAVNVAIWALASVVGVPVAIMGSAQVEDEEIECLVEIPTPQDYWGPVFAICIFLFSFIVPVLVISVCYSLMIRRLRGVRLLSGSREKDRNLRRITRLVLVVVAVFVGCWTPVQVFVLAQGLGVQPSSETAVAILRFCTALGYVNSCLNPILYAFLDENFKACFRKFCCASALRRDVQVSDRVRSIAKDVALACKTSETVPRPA

[3] = target: Tyrosine-protein kinase SYK (Homo sapiens) (UniProt P43405); assay: SYK Kinase screen; conditions: Compound concentration 1.0 uM
[4] = target: Homeodomain-interacting protein kinase 1 (Homo sapiens) (UniProt Q86Z02); assay: HIPK1 (Myak) Kinase screen; conditions: Compound concentration 1.0 uM
Sequence of Homeodomain-interacting protein kinase 1 (Homo sapiens) (Q86Z02 whole entry, looked up): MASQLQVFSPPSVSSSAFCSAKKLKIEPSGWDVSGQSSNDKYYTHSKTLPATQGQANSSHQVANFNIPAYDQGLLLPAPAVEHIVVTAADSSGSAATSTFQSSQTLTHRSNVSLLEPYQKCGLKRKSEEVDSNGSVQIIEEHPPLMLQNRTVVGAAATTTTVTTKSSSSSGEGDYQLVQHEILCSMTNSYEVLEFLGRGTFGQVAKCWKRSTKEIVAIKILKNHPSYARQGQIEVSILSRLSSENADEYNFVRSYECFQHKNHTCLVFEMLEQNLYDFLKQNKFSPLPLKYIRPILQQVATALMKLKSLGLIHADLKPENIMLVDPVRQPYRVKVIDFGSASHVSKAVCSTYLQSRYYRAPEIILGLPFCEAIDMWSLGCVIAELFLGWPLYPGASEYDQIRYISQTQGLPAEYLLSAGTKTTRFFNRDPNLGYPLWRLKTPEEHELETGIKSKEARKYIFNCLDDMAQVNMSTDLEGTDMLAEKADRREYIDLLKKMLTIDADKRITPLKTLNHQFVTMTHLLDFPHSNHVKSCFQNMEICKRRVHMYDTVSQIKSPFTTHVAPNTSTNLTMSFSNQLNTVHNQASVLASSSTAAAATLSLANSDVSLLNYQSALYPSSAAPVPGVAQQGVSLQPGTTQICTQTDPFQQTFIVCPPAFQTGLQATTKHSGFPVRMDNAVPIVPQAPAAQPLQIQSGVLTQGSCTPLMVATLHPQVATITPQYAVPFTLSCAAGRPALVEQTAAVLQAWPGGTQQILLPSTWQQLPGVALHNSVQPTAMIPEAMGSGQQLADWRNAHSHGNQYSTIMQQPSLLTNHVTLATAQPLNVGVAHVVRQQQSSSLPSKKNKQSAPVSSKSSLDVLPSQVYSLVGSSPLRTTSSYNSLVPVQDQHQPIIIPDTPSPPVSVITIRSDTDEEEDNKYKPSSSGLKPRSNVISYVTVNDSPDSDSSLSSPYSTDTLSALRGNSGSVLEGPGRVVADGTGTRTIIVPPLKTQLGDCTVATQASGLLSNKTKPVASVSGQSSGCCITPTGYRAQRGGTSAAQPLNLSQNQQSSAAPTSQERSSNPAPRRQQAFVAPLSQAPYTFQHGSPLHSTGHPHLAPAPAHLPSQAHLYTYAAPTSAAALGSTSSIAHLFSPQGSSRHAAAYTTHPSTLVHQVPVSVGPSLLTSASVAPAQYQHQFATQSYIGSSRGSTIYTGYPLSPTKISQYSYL

[5] = test system: Proto-oncogene tyrosine-protein kinase receptor Ret (Homo sapiens), P07949 [V804L]; assay: RET V804L Kinase screen; conditions: Compound concentration 1.0 uM
[6] = target: Tyrosine-protein kinase ABL1 (Homo sapiens) (UniProt P00519); assay: ABL1 Kinase screen; conditions: Compound concentration 1.0 uM
Sequence of Tyrosine-protein kinase ABL1 (Homo sapiens) (P00519 whole entry): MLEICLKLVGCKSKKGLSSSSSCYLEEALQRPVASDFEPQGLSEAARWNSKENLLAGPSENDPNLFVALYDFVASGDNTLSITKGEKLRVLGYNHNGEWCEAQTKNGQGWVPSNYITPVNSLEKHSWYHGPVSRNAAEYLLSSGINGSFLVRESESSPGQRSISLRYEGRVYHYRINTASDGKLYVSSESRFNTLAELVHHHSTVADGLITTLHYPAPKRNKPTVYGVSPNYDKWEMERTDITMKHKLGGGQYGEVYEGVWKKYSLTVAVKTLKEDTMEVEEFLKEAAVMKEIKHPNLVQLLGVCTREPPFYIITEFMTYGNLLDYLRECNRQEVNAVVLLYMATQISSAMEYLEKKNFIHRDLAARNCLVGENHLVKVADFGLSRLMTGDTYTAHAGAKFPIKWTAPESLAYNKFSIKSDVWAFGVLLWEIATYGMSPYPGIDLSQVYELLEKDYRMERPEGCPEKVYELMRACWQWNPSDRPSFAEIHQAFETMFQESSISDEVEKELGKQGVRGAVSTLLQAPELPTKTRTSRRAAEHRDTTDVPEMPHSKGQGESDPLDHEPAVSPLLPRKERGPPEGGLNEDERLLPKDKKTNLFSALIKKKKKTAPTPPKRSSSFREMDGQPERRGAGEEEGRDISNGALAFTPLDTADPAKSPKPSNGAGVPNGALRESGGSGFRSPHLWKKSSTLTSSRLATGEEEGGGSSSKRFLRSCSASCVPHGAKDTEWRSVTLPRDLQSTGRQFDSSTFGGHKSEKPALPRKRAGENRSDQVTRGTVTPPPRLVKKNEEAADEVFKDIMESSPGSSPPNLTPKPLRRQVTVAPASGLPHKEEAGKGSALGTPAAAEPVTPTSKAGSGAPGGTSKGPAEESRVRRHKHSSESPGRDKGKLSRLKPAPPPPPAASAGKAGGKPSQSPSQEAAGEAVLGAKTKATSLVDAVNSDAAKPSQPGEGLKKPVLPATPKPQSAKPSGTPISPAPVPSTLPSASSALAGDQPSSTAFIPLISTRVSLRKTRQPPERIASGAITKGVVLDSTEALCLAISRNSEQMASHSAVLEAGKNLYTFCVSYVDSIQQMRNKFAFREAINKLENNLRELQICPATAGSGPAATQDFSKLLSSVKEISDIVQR

[7] = target: CDK9/cyclin T1 (Homo sapiens) (UniProt O60563+P50750); assay: CDK9/cyclin T1 Kinase screen; format: protein-complex assay; conditions: Compound concentration 1.0 uM
[8] = target: T2, Alpha-1D adrenergic receptor (Homo sapiens) (UniProt P25100); assay: Inhibition of Adrenergic alpha1D at 10 µM in the Eurofins-Panlabs radioligand binding assay (Eurofins_assay_203400); conditions: Compound concentration 10.0 uM
T2 sequence (whole entry): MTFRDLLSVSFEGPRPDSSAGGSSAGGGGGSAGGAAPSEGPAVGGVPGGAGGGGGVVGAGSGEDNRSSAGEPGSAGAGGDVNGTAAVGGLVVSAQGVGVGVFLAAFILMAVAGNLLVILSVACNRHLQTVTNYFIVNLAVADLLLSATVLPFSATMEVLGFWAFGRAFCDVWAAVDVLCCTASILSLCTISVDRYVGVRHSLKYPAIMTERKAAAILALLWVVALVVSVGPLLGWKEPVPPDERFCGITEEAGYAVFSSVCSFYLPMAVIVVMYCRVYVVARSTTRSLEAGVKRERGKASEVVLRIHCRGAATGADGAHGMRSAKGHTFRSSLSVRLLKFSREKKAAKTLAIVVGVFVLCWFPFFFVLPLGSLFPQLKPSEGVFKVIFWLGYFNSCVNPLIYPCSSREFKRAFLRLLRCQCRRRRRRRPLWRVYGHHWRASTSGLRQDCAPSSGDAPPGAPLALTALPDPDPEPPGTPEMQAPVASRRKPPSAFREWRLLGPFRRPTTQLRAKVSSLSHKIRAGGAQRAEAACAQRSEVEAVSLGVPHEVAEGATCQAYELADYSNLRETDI

[9] = target: T3, Ephrin type-B receptor 4 (Homo sapiens) (UniProt P54760); assay: EPHB4 Kinase screen; conditions: Compound concentration 1.0 uM
T3 sequence (whole entry): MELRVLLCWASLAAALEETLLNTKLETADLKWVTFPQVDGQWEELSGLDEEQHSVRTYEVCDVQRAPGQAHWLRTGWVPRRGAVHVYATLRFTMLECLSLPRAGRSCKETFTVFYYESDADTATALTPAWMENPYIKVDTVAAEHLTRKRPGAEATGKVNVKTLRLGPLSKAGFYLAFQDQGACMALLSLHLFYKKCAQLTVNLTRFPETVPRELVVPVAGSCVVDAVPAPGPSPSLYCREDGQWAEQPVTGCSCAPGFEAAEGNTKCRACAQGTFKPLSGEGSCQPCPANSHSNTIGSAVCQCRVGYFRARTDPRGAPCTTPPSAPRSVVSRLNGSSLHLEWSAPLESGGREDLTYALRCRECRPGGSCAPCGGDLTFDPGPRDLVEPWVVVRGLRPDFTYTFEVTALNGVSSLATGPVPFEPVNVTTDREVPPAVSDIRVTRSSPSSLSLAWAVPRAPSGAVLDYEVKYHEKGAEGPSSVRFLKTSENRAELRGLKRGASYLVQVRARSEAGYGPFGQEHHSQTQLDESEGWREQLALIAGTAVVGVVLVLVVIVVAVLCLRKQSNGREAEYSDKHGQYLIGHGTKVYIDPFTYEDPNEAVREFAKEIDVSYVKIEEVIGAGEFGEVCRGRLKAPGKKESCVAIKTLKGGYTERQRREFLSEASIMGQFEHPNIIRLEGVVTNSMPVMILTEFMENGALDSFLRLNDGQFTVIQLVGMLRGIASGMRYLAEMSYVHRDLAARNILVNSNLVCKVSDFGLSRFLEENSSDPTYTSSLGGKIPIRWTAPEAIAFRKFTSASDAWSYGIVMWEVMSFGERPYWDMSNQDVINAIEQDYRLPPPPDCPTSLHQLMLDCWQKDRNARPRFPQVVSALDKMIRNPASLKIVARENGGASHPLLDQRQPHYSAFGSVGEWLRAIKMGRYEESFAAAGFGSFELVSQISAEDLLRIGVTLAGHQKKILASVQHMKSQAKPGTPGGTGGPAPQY

[10] = target: Dual specificity mitogen-activated protein kinase kinase 2 (Homo sapiens) (UniProt P36507); assay: MAP2K2 (MEK2) Kinase screen; conditions: Compound concentration 1.0 uM
Sequence of Dual specificity mitogen-activated protein kinase kinase 2 (Homo sapiens) (P36507 whole entry): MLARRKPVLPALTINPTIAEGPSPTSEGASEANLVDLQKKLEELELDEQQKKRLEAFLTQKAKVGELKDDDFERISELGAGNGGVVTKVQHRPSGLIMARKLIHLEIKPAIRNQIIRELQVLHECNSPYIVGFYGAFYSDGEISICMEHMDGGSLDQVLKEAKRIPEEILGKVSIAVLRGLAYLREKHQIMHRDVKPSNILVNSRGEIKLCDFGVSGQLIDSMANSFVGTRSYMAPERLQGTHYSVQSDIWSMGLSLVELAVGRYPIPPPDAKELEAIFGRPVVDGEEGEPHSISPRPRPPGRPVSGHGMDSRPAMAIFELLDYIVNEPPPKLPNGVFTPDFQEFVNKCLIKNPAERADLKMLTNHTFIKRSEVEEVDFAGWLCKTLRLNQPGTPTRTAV

[11] = target: Serine/threonine-protein kinase 16 (Homo sapiens) (UniProt O75716); assay: STK16 (PKL12) Kinase screen; conditions: Compound concentration 1.0 uM
Sequence of Serine/threonine-protein kinase 16 (Homo sapiens) (O75716 whole entry): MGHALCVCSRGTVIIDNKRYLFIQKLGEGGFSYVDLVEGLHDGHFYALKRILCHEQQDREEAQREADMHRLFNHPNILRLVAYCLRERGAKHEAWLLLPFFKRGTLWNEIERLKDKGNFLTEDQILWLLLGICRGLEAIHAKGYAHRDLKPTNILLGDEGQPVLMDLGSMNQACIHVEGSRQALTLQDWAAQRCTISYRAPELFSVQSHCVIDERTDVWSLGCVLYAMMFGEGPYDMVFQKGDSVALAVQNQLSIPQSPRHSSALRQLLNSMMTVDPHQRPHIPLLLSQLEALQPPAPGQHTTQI

[12] = target: Serine/threonine-protein kinase Chk2 (Homo sapiens) (UniProt O96017); assay: CHEK2 (CHK2) Kinase screen; conditions: Compound concentration 1.0 uM
Sequence of Serine/threonine-protein kinase Chk2 (Homo sapiens) (O96017 whole entry): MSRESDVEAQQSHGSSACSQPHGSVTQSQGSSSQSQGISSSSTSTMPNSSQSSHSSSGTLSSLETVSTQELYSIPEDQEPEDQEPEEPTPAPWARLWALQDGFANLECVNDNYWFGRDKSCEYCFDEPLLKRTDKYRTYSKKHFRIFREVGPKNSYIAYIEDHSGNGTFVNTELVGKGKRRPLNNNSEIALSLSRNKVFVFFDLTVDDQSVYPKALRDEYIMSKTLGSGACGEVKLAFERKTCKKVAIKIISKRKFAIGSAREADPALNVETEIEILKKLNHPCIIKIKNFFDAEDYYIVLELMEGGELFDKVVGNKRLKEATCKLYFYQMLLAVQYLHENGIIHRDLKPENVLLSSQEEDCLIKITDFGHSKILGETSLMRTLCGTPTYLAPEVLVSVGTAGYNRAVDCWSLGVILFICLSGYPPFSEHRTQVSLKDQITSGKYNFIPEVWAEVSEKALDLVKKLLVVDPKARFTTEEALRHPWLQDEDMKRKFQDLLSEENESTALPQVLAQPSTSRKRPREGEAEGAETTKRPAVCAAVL

[13] = target: 3-phosphoinositide-dependent protein kinase 1 (PDPK1) (Homo sapiens) (UniProt O15530); assay: PDK1 Kinase screen; conditions: Compound concentration 1.0 uM
Sequence of 3-phosphoinositide-dependent protein kinase 1 (PDPK1) (Homo sapiens) (O15530 whole entry, looked up): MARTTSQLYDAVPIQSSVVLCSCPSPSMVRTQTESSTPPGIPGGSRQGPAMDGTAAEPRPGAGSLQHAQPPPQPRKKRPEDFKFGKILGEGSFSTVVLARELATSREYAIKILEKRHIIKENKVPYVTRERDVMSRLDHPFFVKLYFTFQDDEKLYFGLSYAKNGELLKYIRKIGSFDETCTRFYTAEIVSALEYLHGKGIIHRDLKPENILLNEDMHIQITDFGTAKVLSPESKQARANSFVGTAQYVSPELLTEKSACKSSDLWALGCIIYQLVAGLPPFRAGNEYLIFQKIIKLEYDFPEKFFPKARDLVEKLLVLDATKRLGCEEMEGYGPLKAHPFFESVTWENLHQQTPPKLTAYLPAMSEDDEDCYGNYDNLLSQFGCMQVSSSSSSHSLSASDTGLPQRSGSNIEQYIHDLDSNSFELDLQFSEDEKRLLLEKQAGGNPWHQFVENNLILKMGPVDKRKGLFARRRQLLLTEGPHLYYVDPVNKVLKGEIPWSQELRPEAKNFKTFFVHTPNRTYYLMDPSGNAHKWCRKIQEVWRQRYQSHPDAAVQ

Measured: inhibition

C[C@@H]1CN(c2cc(-c3n[nH]c4ccc(OC5(C)CC5)cc34)ncn2)C[C@H](C)O1 [MLi-2]
inactive: [1] -6% | [2] 7% | [3] 2.84% | [4] 3.08% | [5] 5.69% | [6] 1.09% | [7] 11.3% | [8] 1% | [9] 2.23% | [10] 20.3% | [11] 2.58% | [12] 14.9% | [13] 13.6%

Reference: ChEMBL document CHEMBL4507291 (2021)
